# Patent publication USRE50917E1, “Formulations of (s)-3-(4-((4-(morpholinomethyl)benzyl)oxy)-1-oxoisoindolin-2-yl)piperidine-2,6-dione” (Celgene Corporation, priority 2013, dated 2026)
# Entries after “also recorded” stand apart in the source; their conditions may differ.
# What was measured:
# [1] = Chemical stability of Compound A towards hydrolysis; type: physicochemical
# TNF-α = conditions: LPS-stimulated hPBMC and human whole blood; background statement; cited from earlier work
# T cells = conditions: background statement; cited from earlier work
# IL-10 = conditions: LPS-stimulated hPBMC and human whole blood; background statement; cited from earlier work
# IL-1β = conditions: LPS-stimulated hPBMC and human whole blood; background statement; cited from earlier work
structure (smiles),measurement,setting,value
"O=C1CC[C@H](N2Cc3c(OCc4ccc(CN5CCOCC5)cc4)cccc3C2=O)C(=O)N1 [Compound A, (S)-3-(4-((4-(morpholinomethyl)benzyl)oxy)-1-oxoisoindolin-2-yl)piperidine-2,6-dione]","Susceptibility to hydrolysis, in words",[1],prone to hydrolysis; also recorded: easily degraded by hydrolysis
same,"Degradation of TNF-α mRNA, in words",TNF-α,enhances
same,"Inhibition of TNF-α, in words",TNF-α,markedly inhibits
same,"Co-stimulation of T cells, in words",T cells,potent co-stimulator
same,"Effect on IL-10, in words",IL-10,stimulates
same,"Inhibition of IL-1β, in words",IL-1β,potently inhibits
